In this assay the test system is Human Umbilical Vein Endothelial cells. Put plainly: HUVEC proliferation assay (VEGF-stimulated). The class given is cell-based. The following applies: VEGF 50 ng/mL final, 72 h incubation, CyQuant dye, read-out: inhibited VEGF-stimulated HUVEC proliferation at a level (IC50). The protocol: Human Umbilical Vein Endothelial cells are purchased from Clonetics, Inc., as cryopreserved cells harvested from a pool of donors. These cells, at passage 1, are thawed and expanded in EBM-2 complete medium, until passage 2 or 3. The cells are trypsinized, washed in DMEM+10% FBS+antibiotics, and spun at 1000 rpm for 10 min. Prior to centrifugation of the cells, a small amount is collected for a cell count. After centrifugation, the medium is discarded, and the cells are resuspended in the appropriate volume of DMEM+10% FBS+antibiotics to achieve a concentration of 3×10^5 cells/mL. Another cell count is performed to confirm the cell concentration. The cells are diluted to 3×10^4 cells/mL in DMEM+10% FBS+antibiotics, and 100 μL of cells are added to a 96-well plate. The cells are incubated at 37° C. for 22 h.
Prior to the completion of the incubation period, compound dilutions are prepared. Five-point, five-fold serial dilutions are prepared in DMSO, at concentrations 400-fold greater than the final concentrations desired. 2.5 μL of each compound dilution are diluted further in a total of 1 mL DMEM+10% FBS+antibiotics (400× dilution). Medium containing 0.25% DMSO is also prepared for the 0 μM compound sample. After 22-h, the medium is removed from the cells, and 100 μL of each compound dilution is added. The cells are incubated at 37° C. for 2-3 h.
During the compound pre-incubation period, the growth factors are diluted to the appropriate concentrations. Solutions of DMEM+10% FBS+antibiotics, containing either VEGF or bFGF at the following concentrations: 50, 10, 2, 0.4, 0.08, and 0 ng/mL are prepared. For the compound-treated cells, solutions of VEGF at 550 ng/mL or bFGF at 220 ng/mL for 50 ng/mL or 20 ng/mL final concentrations, respectively, are prepared since 10 μL of each will be added to the cells (110 μL final volume). At the appropriate time after adding the compounds, the growth factors are added. VEGF is added to one set of plates, while bFGF is added to another set of plates. For the growth factor control curves, the media on wells B4-G6 of plates 1 and 2 are replaced with media containing VEGF or bFGF at the varying concentrations (50-0 ng/mL). The cells are incubated at 37° C. for an additional 72 h.
At the completion of the 72 h incubation period, the medium is removed, and the cells are washed twice with PBS. After the second wash with PBS, the plates are tapped gently to remove excess PBS, and the cells are placed at −70° C. for at least 30 min. […] Raw data are collected and analyzed using a 4-parameter fit equation in XLFit. IC50 values are then determined.

Take `CN1CCN(Cc2cc(Nc3nc4cc(Oc5ccnc6ccccc56)cc(Cl)c4o3)ccc2Cl)CC1` [Example 257, [4-Chloro-3-(4-methyl-piperazin-1-ylmethyl)-phenyl]-[7-chloro-5-(quinolin-4-yloxy)-benzoxazol-2-yl]-amine]: the IC50 is under 100 nM. As for `COc1cc2nccc(Oc3ccc4oc(Nc5ccc(Cl)c(OC[C@@H]6CCCN6C)c5)nc4c3)c2cc1OC` [Example 259, S-[4-Chloro-3-(1-methylpyrrolidin-2-ylmethoxy)-phenyl]-[5-(6,7-dimethoxyquinolin-4-yloxy)-benzoxazol-2-yl]-amine], the figure is under 100 nM. As for `COc1cc2ncnc(Oc3ccc4oc(Nc5ccc(Cl)c(OC[C@@H]6CCCN6C)c5)nc4c3)c2cc1OC` [Example 263, S-[4-Chloro-3-(1-methyl-pyrrolidin-2-ylmethoxy)-phenyl]-[5-(6,7-dimethoxy-quinazolin-4-yloxy)-benzoxazol-2-yl]-amine], the figure is under 100 nM; as for `CN(C)C1CCN(Cc2cc(Nc3nc4cc(Oc5ccnc6[nH]ccc56)ccc4o3)ccc2Cl)C1` (centres unmarked) [Example 264, [4-Chloro-3-(3-dimethylamino-pyrrolidin-1-ylmethyl)-phenyl]-[5-(1H-pyrrolo[2,3-b]pyridin-4-yloxy)-benzoxazol-2-yl]-amine], under 100 nM. The result for `CN1CCC(COc2cc(Nc3nc4cc(Oc5ccnc6[nH]ccc56)ccc4o3)ccc2Cl)CC1` [Example 265, [4-Chloro-3-(1-methyl-piperidin-4-ylmethoxy)-phenyl]-[5-(1H-pyrrolo[2,3-b]pyridin-4-yloxy)-benzoxazol-2-yl]-amine] reads under 100 nM.

(Values after patent publication US7531553B2, “Heterocyclic compounds and methods of use” (Amgen Inc., priority 2003, dated 2009).)
